From patent publication US8877747B2, “Indenone derivative and pharmaceutical composition comprising same” (Korea Research Institute of Chemical Technology, priority 2009, dated 2014)
Counter-ions that a name gives are not always drawn.

These compounds were tested on MC3T3-E1 cells (assay: ALP activity, differentiation of osteoblast cells). Conditions: Mus musculus, MC3T3-E1, 144 h; MC3T3E1 cells treated with 10 μM compound and OF; relates activity to OF-only group (100%); higher = more efficacious.
Assay type: cell-based
Description: To examine the effects of the inventive indenone derivatives on the differentiation and activation of osteoblast cells, the activity and expression of alkaline phosphatase (ALP), a marker for the differentiation of osteoblast cells, and the bone nodule formation using a mouse derived osteoblast-like cells, MC3T3-E1 (ATCC, Japan) or a primary mouse calvaria derived preosteoblastic cells were observed.
MC3T3-E 1 cells were seeded in a medium containing osteogenic factors (OF) such as ascorbic acids and β-glycerophosphates (b-GP), and each compound of Examples was added thereto at a concentration of 0.1, 1 and 10 μM. The cells were incubated for 6 days (MC3T3-E1 cells) or 7 days (primary mouse calvaria derived preosteoblastic cells) in a 37° C. CO2 incubator. Then, the culture medium was replaced with a fresh medium together with the test compound every two or three days. On the last day, the medium was centrifuged to remove the supernatant, and the cells were washed with PBS. The washed cells were subjected to a 3-cycle freege-thaw treatment using a −70° C. deep freezer to allow enzymes elute in a lysis buffer. The lysed protein was quantified, followed by measurement of ALP activity using 4-nitrophenylphosphate.
Further, a group treated only with DMSO or OF was tested for ALP activities for comparison.
For `CS(=O)(=O)N1CCN(CCOc2ccc3c(c2)C(=O)C(c2cccnc2)=C3c2cc(F)cc(F)c2)CC1` [Example 59, 3-(3,5-difluorophenyl)-6-(2-(4-(methylsulfonyl)piperazin-1-yl)ethoxy)-2-(pyridin-3-yl)-1H-inden-1-one hydrochloride salt], the activity at 10 µM was 254%. `CN(C)CCCOc1ccc2c(c1)C(=O)C(c1cccnc1)=C2c1cc(F)cc(F)c1` [Example 60, 3-(3,5-difluorophenyl)-6-(3-(dimethylamino)propoxy)-2-(pyridin-3-yl)-1H-inden-1-one hydrochloride salt] was tested, and the activity at 10 µM was 19%. `O=C1C(c2cccnc2)=C(c2cc(F)cc(F)c2)c2ccc(OCCc3ccccc3)cc21` [Example 61, 3-(3,5-difluorophenyl)-6-phenethoxy-2-(pyridin-3-yl)-1H-inden-1-one hydrochloride salt] showed an activity at 10 µM of 113%. With `O=C1C(c2cccnc2)=C(c2cc(F)cc(F)c2)c2ccc(OCCc3ccccn3)cc21` [Example 62, 3-(3,5-difluorophenyl)-6-(2-(pyridin-2-yl)ethoxy)-2-(pyridin-3-yl)-1H-inden-1-one hydrochloride salt] the activity at 10 µM was 90%. Compound `O=C1C(c2cccnc2)=C(c2cc(F)cc(F)c2)c2ccc(OCCN3CCCCC3)cc21` [Example 63, 3-(3,5-difluorophenyl)-6-(2-(piperidin-1-yl)ethoxy)-2-(pyridin-3-yl)-1H-inden-1-one hydrochloride salt] has an activity at 10 µM of 53%. In the case of `CC(C)(C)OC(=O)N1CCN(CCCOc2ccc3c(c2)C(=O)C(c2cccnc2)=C3c2cc(F)cc(F)c2)CC1` [Example 64, tert-butyl 4-(3-(3-(3,5-difluorophenyl)-1-oxo-2-(pyridin-3-yl)-1H-inden-6-yloxy)propyl)piperazine-1-carboxylate], the activity at 10 µM is reported as 34%. `CN1CCN(CCCOc2ccc3c(c2)C(=O)C(c2cccnc2)=C3c2cc(F)cc(F)c2)CC1` [Example 65, 3-(3,5-difluorophenyl)-6-(3-(4-methylpiperazin-1-yl)propoxy)-2-(pyridin-3-yl)-1H-inden-1-one hydrochloride salt] was tested, and the activity at 10 µM was 19%. In the case of `O=C1C(c2cccnc2)=C(c2cc(F)cc(F)c2)c2ccc(OCCCN3CCNCC3)cc21` [Example 66, 3-(3,5-difluorophenyl)-6-(3-(piperazin-1-yl)propoxy)-2-(pyridin-3-yl)-1H-inden-1-one hydrochloride salt], the activity at 10 µM is reported as 70%. Work on `CC(=O)N1CCN(CCCOc2ccc3c(c2)C(=O)C(c2cccnc2)=C3c2cc(F)cc(F)c2)CC1` [Example 67, 6-(3-(4-acetylpiperazin-1-yl)propoxy)-3-(3,5-difluorophenyl)-2-(pyridin-3-yl)-1H-inden-1-one hydrochloride salt] yielded an activity at 10 µM of 116%. With `CS(=O)(=O)N1CCN(CCCOc2ccc3c(c2)C(=O)C(c2cccnc2)=C3c2cc(F)cc(F)c2)CC1` [Example 68, 3-(3,5-difluorophenyl)-6-(3-(4-(methylsulfonyl)piperazin-1-yl)propoxy)-2-(pyridin-3-yl)-1H-inden-1-one hydrochloride salt] the activity at 10 µM was 164%. `CC(C)(C)OC(=O)N1CCC(CCOc2ccc3c(c2)C(=O)C(c2cccnc2)=C3c2cc(F)cc(F)c2)CC1` [Example 69, tert-butyl 4-(2-(3-(3,5-difluorophenyl)-1-oxo-2-(pyridin-3-yl)-1H-inden-6-yloxy)ethyl)piperidine-1-carboxylate] gave an activity at 10 µM of 72%. `O=C1C(c2cccnc2)=C(c2cc(F)cc(F)c2)c2ccc(OCCC3CCNCC3)cc21` [Example 70, 3-(3,5-difluorophenyl)-6-(2-(piperidin-4-yl)ethoxy)-2-(pyridin-3-yl)-1H-inden-1-one hydrochloride salt] showed an activity at 10 µM of 19%. With `CN1CCC(CCOc2ccc3c(c2)C(=O)C(c2cccnc2)=C3c2cc(F)cc(F)c2)CC1` [Example 71, 3-(3,5-difluorophenyl)-6-(2-(1-methylpiperidin-4-yl)ethoxy)-2-(pyridin-3-yl)-1H-inden-1-one hydrochloride salt] the activity at 10 µM was 19%. In the case of `CC(=O)N1CCC(CCOc2ccc3c(c2)C(=O)C(c2cccnc2)=C3c2cc(F)cc(F)c2)CC1` [Example 72, 6-(2-(1-acetylpiperidin-4-yl)ethoxy)-3-(3,5-difluorophenyl)-2-(pyridin-3-yl)-1H-inden-1-one hydrochloride salt], the activity at 10 µM is reported as 58%. Work on `CS(=O)(=O)N1CCC(CCOc2ccc3c(c2)C(=O)C(c2cccnc2)=C3c2cc(F)cc(F)c2)CC1` [Example 73, 3-(3,5-difluorophenyl)-6-(2-(1-(methylsulfonyl)piperidin-4-yl)ethoxy)-2-(pyridin-3-yl)-1H-inden-1-one hydrochloride salt] yielded an activity at 10 µM of 150%. `O=C1C(c2cccnc2)=C(c2cc(F)cc(F)c2)c2ccc(OCCN3CCS(=O)(=O)CC3)cc21` [Example 74, 6-[2-(1,1-dioxothiomorpholin-4-yl)ethoxy]-3-(3,5-difluorophenyl)-2-(pyridin-3-yl)-1H-inden-1-one hydrochloride salt] was tested, and the activity at 10 µM was 206%. `O=C1C(c2cccnc2)=C(c2cc(F)cc(F)c2)c2ccc(OCCC3CCOCC3)cc21` [Example 78, 3-(3,5-difluorophenyl)-2-(pyridin-3-yl)-6-(2-(tetrahydro-2H-pyran-4-yl)ethoxy)-1H-inden-1-one] showed an activity at 10 µM of 187%. With `O=C1C(c2cccnc2)=C(c2cc(F)cc(F)c2)c2ccc(OCC3CCCO3)cc21` (centres unmarked) [Example 79, 3-(3,5-difluorophenyl)-2-(pyridin-3-yl)-6-((tetrahydrofuran-2-yl)methoxy)-1H-inden-1-one] the activity at 10 µM was 110%. `O=C1C(c2cccnc2)=C(c2ccccc2F)c2ccc(OCCN3CCOCC3)cc21` [Example 80, 6-(2-morpholinoethoxy)-3-(2-fluorophenyl)-2-(pyridin-3-yl)-1H-inden-1-one] was tested, and the activity at 10 µM was 74%. Compound `O=C1C(c2cccnc2)=C(c2cccc(F)c2)c2ccc(OCCN3CCOCC3)cc21` [Example 81, 6-(2-morpholinoethoxy)-3-(3-fluorophenyl)-2-(pyridin-3-yl)-1H-inden-1-one] has an activity at 10 µM of 116%. `O=C1C(c2cccnc2)=C(c2ccc(F)cc2F)c2ccc(OCCN3CCOCC3)cc21` [Example 82, 6-(2-morpholinoethoxy)-3-(2,4-difluorophenyl)-2-(pyridin-3-yl)-1H-inden-1-one] was tested, and the activity at 10 µM was 178%. With `O=C1C(c2ccccn2)=C(c2ccccc2)c2ccc(OCCN3CCOCC3)cc21` [Example 83, 6-(2-morpholinoethoxy)-3-phenyl-2-(pyridin-2-yl)-1H-inden-1-one] the activity at 10 µM was 18%. For `O=C1C(c2ccc3c(c2)OCO3)=C(c2ccccc2)c2ccc(OCCN3CCOCC3)cc21` [Example 85, 2-(benzo[1,3]dioxol-5-yl)-6-(2-morpholinoethoxy)-3-phenyl-1H-inden-1-one], the activity at 10 µM was 77%. In the case of `O=C1C(c2ccc(Cl)s2)=C(c2ccccc2)c2ccc(OCCN3CCOCC3)cc21` [Example 86, 2-(5-chlorothiophen-2-yl)-6-(2-morpholinoethoxy)-3-phenyl-1H-inden-1-one], the activity at 10 µM is reported as 77%. `Cn1ccc2cc(C3=C(c4ccccc4)c4ccc(OCCN5CCOCC5)cc4C3=O)ccc21` [Example 87, 2-(1-methyl-1H-indol-5-yl)-6-(2-morpholinoethoxy)-3-phenyl-1H-inden-1-one] showed an activity at 10 µM of 71%. Work on `O=C1C(c2ccc[nH]2)=C(c2ccccc2)c2ccc(OCCN3CCOCC3)cc21` [Example 90, 6-(2-morpholinoethoxy)-3-phenyl-2-(1H-pyrrol-2-yl)-1H-inden-1-one] yielded an activity at 10 µM of 63%. With `O=C1C(c2cc3ccccc3o2)=C(c2ccccc2)c2ccc(OCCN3CCOCC3)cc21` [Example 91, 6-(2-morpholinoethoxy)-2-(benzofuran-2-yl)-3-phenyl-1H-inden-1-one] the activity at 10 µM was 67%. In the case of `O=C1C(c2cnc3ccccc3c2)=C(c2cc(F)cc(F)c2)c2ccc(OCCN3CCS(=O)(=O)CC3)cc21` [Example 92, 3-(3,5-difluorophenyl)-6-[2-(1,1-dioxothiomorpholin-4-yl)ethoxy]-2-(quinolin-3-yl)-1H-inden-1-one hydrochloride salt], the activity at 10 µM is reported as 262%. With `COc1ccc(C2=C(c3cc(F)cc(F)c3)c3ccc(OCCN4CCS(=O)(=O)CC4)cc3C2=O)cn1` [Example 93, 3-(3,5-difluorophenyl)-2-(6-methoxypyridin-3-yl)-6-[2-(1,1-dioxothiomorpholin-4-yl)ethoxy]-1H-inden-1-one hydrochloride salt] the activity at 10 µM was 155%. `Cc1ccc(C2=C(c3cc(F)cc(F)c3)c3ccc(OCCN4CCS(=O)(=O)CC4)cc3C2=O)cc1` [Example 94, 3-(3,5-difluorophenyl)-6-[2-(1,1-dioxothiomorpholin-4-yl)ethoxy]-2-p-tolyl-1H-inden-1-one hydrochloride salt] was tested, and the activity at 10 µM was 109%. For `COc1ccc(C2=C(c3cc(F)cc(F)c3)c3ccc(OCCN4CCS(=O)(=O)CC4)cc3C2=O)cc1F` [Example 95, 2-(3-fluoro-4-methoxyphenyl)-3-(3,5-difluorophenyl)-6-[2-(1,1-dioxothiomorpholin-4-yl)ethoxy]-1H-inden-1-one hydrochloride salt], the activity at 10 µM was 203%. In the case of `CS(=O)(=O)N1CCN(CCOc2ccc3c(c2)C(=O)C(c2cnc4ccccc4c2)=C3c2cc(F)cc(F)c2)CC1` [Example 96, 3-(3,5-difluorophenyl)-6-{2-[4-(methylsulfonyl)piperazin-1-yl]ethoxy}-2-(quinolin-3-yl)-1H-inden-1-one hydrochloride salt], the activity at 10 µM is reported as 152%.
